According to patent US20260317309A1, “N-HETEROCYLIC GPCR RECEPTOR AGONISTS, PHARMACEUTICAL COMPOSITIONS COMPRISING THE SAME, AND METHODS FOR THEIR USE” (Carmot Therapeutics, Inc., priority 2022, published 2026):

Molecular target: T1, human GLP-1 receptor (Homo sapiens, UniProt P43220)
T1 construct: expressed in transfected cells
Assay: GLP-1R cAMP assay (cAMP accumulation in CHO cells stably overexpressing the human GLP-1 receptor, HitHunter kit)
Format: cell-based
Conditions: CHO cells stably overexpressing human GLP-1R, 30 min, 20-point dose response in triplicate
Protocol: CAMP accumulation was measured in Chinese hamster ovary (CHO) cells (10,000 cells/well) stably overexpressing the human GLP-1 receptor using the HitHunter CAMP Assay for Small Molecules Kit (Eurofins). Briefly, cells were grown in Ham's F12 Nutrient Mix with 10% FBS, and lifted with Cell Dissociation Buffer, Enzyme free, PBS based (ThermoFisher). Cells were pelleted, and resuspended in Hank's buffered saline solution with 10 mM HEPES, and 625 μM 3-isobutyl-1-methylxanthine. The anti-cAMP antibody reagent was then added to cells at a 1:2 ratio and 5 μL of mixture was seeded in 384-well small volume white assay plates, at 10,000 cells/well. Cells were then treated with 50 nL compound using an ECHO 550 acoustic dispenser (Labcyte) in a 20-point dose response format in triplicate for 30 min. Cells were then lysed, and detection reagents added according to the manufacturer's protocol. After overnight incubation, luminescence was measured using a Perkin Elmer Envision plate reader. Dose response curves were analyzed using GraphPad Prism 9.0.
In the Table, EC50 values are designated as follows: • A: 0 nM<EC50<0.1 nM; • B: 0.1 nM≤EC50<1.0 nM; • C: 1.0 nM≤EC50<10.0 nM; • D: 10.0 nM≤EC50<100 nM; • E: 100 nM≤EC50<500 nM; and • F: ≥500 nM

T1 sequence (P43220 24-463): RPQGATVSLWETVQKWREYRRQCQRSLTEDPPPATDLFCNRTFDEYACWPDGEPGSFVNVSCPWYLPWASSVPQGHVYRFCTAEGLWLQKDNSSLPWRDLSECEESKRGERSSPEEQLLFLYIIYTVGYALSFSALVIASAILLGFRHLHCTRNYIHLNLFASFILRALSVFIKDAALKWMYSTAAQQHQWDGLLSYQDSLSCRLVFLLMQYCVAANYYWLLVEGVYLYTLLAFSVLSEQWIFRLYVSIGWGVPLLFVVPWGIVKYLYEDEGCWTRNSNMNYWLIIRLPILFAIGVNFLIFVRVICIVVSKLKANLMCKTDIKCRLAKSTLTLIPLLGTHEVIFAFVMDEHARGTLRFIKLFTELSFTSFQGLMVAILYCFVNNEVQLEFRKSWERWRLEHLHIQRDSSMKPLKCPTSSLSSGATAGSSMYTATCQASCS

| EC50 | Structure (SMILES) |
| --- | --- |
| 0.1 to 1 nM | C[C@H]1C[C@@H](Oc2ccnc(COc3ccc(F)cc3F)n2)CCN1Cc1nc2cc(F)c(C(=O)O)cc2n1C[C@@H]1CCO1 [Compound 572, 2-{[(2S,4S)-4-({2-[(2,4-di-fluorophenoxy)methyl]pyrimidin-4-yl}oxy)-2-methylpiperidin-1-yl]methyl}-5-fluoro-1-{[(2S)-oxetan-2-yl]methyl}-1H-1,3-benzodiazole-6-carboxylic acid] |
| 1 to 10 nM | C[C@@H](Cn1c(CN2CC[C@H](Oc3ccnc(COc4ccc(F)cc4F)n3)C[C@@H]2C)nc2ccc(C(=O)O)cc21)OC1CC1 [Compound 612, 1-((S)-2-cyclopropoxypropyl)-2-(((2S,4S)-4-((2-((2,4-difluorophenoxy)methyl)pyrimidin-4-yl)oxy)-2-methylpiperidin-1-yl)methyl)-1H-benzo[d]imidazole-6-carboxylic acid] |
| < 0.1 nM | C[C@H]1C[C@@H](Oc2ccnc(COc3ncc(Cl)cc3F)n2)CCN1Cc1nc2c(F)cc(C(=O)O)cc2n1C[C@@H]1CCO1 [Compound 597, 2-{[(2S,4S)-4-[(2-{[(5-Chloro-3-fluoropyridin-2-yl)oxy]methyl}pyrimidin-4-yl)oxy]-2-methylpiperidin-1-yl]methyl}-4-fluoro-1-{[(2S)-oxetan-2-yl]methyl}-1H-1,3-benzodiazole-6-carboxylic acid] |
| 0.1 to 1 nM | C[C@H]1C[C@@H](Oc2ccnc(COc3ccc(F)cc3F)n2)CCN1Cc1nc2ccc(C(=O)O)cc2n1C[C@H]1CCOC1 [Compound 575, 2-{[(2S,4S)-4-({2-[(2,4-Difluorophenoxy)methyl]pyrimidin-4-yl}oxy)-2-methylpiperidin-1-yl]methyl}-1-{[(3R)-oxolan-3-yl]methyl}-1H-1,3-benzodiazole-6-carboxylic acid] |
| < 0.1 nM | C[C@H]1C[C@@H](Oc2ccnc(COc3ccc(C#N)cc3F)n2)CCN1Cc1nc2ccc(C(=O)O)cc2n1CCOCC(F)(F)F [Compound 596, 2-{[(2S,4S)-4-({2-[(4-Cyano-2-fluorophenoxy)methyl]pyrimidin-4-yl}oxy)-2-methylpiperidin-1-yl]methyl}-1-[2-(2,2,2-trifluoroethoxy)ethyl]-1H-1,3-benzodiazole-6-carboxylic acid] |
| < 0.1 nM | C[C@H]1C[C@@H](Oc2ccnc(COc3ncc(Cl)cc3F)n2)CCN1Cc1nc2ccc(C(=O)O)cc2n1C[C@@H]1CCO1 [Compound 554, 2-(((2S,4S)-4-((2-(((5-Chloro-3-fluoropyridin-2-yl)oxy)methyl)pyrimidin-4-yl)oxy)-2-methylpiperidin-1-yl)methyl)-1-(((S)-oxetan-2-yl)methyl)-1H-benzo[d]imidazole-6-carboxylic acid] |
| 0.1 to 1 nM | N#Cc1ccc(OCc2nccc(O[C@H]3CCN(Cc4nc5ccc(C(=O)O)cc5n4C[C@@H]4CCO4)C[C@@H]3F)n2)c(F)c1 [Compound 553, 2-{[(3S,4S)-4-({2-[(4-cyano-2-fluorophenoxy)methyl]pyrimidin-4-yl}oxy)-3-fluoropiperidin-1-yl]methyl}-1-{[(2S)-oxetan-2-yl]methyl}-1H-1,3-benzodiazole-6-carboxylic acid] |
| < 0.1 nM | CC[C@H]1C[C@@H](Oc2ccnc(COc3ccc(C#N)cc3F)n2)CCN1Cc1nc2ccc(C(=O)O)cc2n1C[C@@H]1CCO1 [Compound 587, 2-{[(2S,4S)-4-({2-[(4-Cyano-2-fluorophenoxy)methyl]pyrimidin-4-yl}oxy)-2-ethylpiperidin-1-yl]methyl}-1-{[(2S)-oxetan-2-yl]methyl}-1H-1,3-benzodiazole-6-carboxylic acid] |
| < 0.1 nM | C[C@H]1C[C@@H](Oc2ccnc(COc3ncc(C#N)cc3F)n2)CCN1Cc1nc2c(F)cc(C(=O)O)cc2n1C[C@@H]1CCO1 [Compound 607, 2-{[(2S,4S)-4-[(2-{[(5-Cyano-3-fluoropyridin-2-yl)oxy]methyl}pyrimidin-4-yl)oxy]-2-methylpiperidin-1-yl]methyl}-4-fluoro-1-[(oxetan-2-yl)methyl]-1H-1,3-benzodiazole-6-carboxylic acid] |
| 0.1 to 1 nM | N#Cc1ccc(OCc2nccc(O[C@H]3CCN(Cc4nc5ccc(C(=O)O)cc5n4C[C@@H]4CCO4)[C@@H](C(F)(F)F)C3)n2)c(F)c1 [Compound 599, 2-{[(2R,4S)-4-({2-[(4-cyano-2-fluorophenoxy)methyl]pyrimidin-4-yl}oxy)-2-(trifluoromethyl)piperidin-1-yl]methyl}-1-{[(2S)-oxetan-2-yl]methyl}-1H-1,3-benzodiazole-6-carboxylic acid] |
| 0.1 to 1 nM | C[C@H]1C[C@@H](Oc2ccnc(COc3ccc(F)cc3F)n2)CCN1Cc1nc2ccc(C(=O)O)cc2n1C[C@@H]1CCOC1 [Compound 584, 2-{[(2S,4S)-4-({2-[(2,4-Difluorophenoxy)methyl]pyrimidin-4-yl}oxy)-2-methylpiperidin-1-yl]methyl}-1-{[(3S)-oxolan-3-yl]methyl}-1H-1,3-benzodiazole-6-carboxylic acid] |
| 0.1 to 1 nM | C[C@H]1C[C@@H](Oc2ccnc(COc3ccc(F)cc3C#N)n2)CCN1Cc1nc2ccc(C(=O)O)cc2n1C[C@H]1CCOC1 [Compound 558, 2-{[(2S,4S)-4-({2-[(2-cyano-4-fluorophenoxy)methyl]pyrimidin-4-yl}oxy)-2-methylpiperidin-1-yl]methyl}-1-{[(3R)-oxolan-3-yl]methyl}-1H-1,3-benzodiazole-6-carboxylic acid] |
| 0.1 to 1 nM | C[C@H]1C[C@@H](Oc2ccnc(COc3ncc(F)cc3F)n2)CCN1Cc1nc2ccc(C(=O)O)cc2n1C[C@@H]1CCCO1 [Compound 632, 2-(((2S,4S)-4-((2-(((3,5-Difluoropyridin-2-yl)oxy)methyl)pyrimidin-4-yl)oxy)-2-methylpiperidin-1-yl)methyl)-1-(((S)-tetrahydrofuran-2-yl)methyl)-1H-benzo[d]imidazole-6-carboxylic acid] |
| < 0.1 nM | O=C(O)c1cc(F)c2nc(CN3CCC(Oc4ccnc(COc5ncc(Cl)cc5F)n4)CC3)n(C[C@@H]3CCO3)c2c1 [Compound 605, 2-({4-[(2-{[(5-Chloro-3-fluoropyridin-2-yl)oxy]methyl}pyrimidin-4-yl)oxy]piperidin-1-yl}methyl)-4-fluoro-1-{[(2S)-oxetan-2-yl]methyl}-1H-1,3-benzodiazole-6-carboxylic acid] |
| 0.1 to 1 nM | C[C@H](Cn1c(CN2CC[C@H](Oc3ccnc(COc4ncc(F)cc4F)n3)C[C@@H]2C)nc2c(F)cc(C(=O)O)cc21)OC(F)F [Compound 620, 1-((R)-2-(difluoromethoxy)propyl)-2-(((2S,4S)-4-((2-(((3,5-difluoropyridin-2-yl)oxy)methyl)pyrimidin-4-yl)oxy)-2-methylpiperidin-1-yl)methyl)-4-fluoro-1H-benzo[d]imidazole-6-carboxylic acid] |
| 0.1 to 1 nM | C[C@H]1C[C@@H](Oc2ccnc(COc3ccc(F)cc3C#N)n2)CCN1Cc1nc2ccc(C(=O)O)cc2n1C[C@H]1CCO1 [Compound 561, 2-{[(2S,4S)-4-({2-[(2-cyano-4-fluorophenoxy)methyl]pyrimidin-4-yl}oxy)-2-methylpiperidin-1-yl]methyl}-1-{[(2R)-oxetan-2-yl]methyl}-1H-1,3-benzodiazole-6-carboxylic acid] |
| 0.1 to 1 nM | C[C@H]1C[C@@H](Oc2ccnc(COc3ccc(Cl)cn3)c2)CCN1Cc1nc2c(F)cc(C(=O)O)cc2n1C[C@@H]1CCO1 [Compound 616, 2-(((2S,4S)-4-((2-(((5-Chloropyridin-2-yl)oxy)methyl)pyridin-4-yl)oxy)-2-methylpiperidin-1-yl)methyl)-4-fluoro-1-(((S)-oxetan-2-yl)methyl)-1H-benzo[d]imidazole-6-carboxylic acid] |
| 0.1 to 1 nM | C[C@H]1C[C@@H](Oc2ccnc(COc3ccc(C#N)cn3)n2)CCN1Cc1nc2c(F)cc(C(=O)O)cc2n1C[C@@H]1CCO1 [Compound 604, 2-{[(2S,4S)-4-[(2-{[(5-cyanopyridin-2-yl)oxy]methyl}pyrimidin-4-yl)oxy]-2-methylpiperidin-1-yl]methyl}-4-fluoro-1-{[(2S)-oxetan-2-yl]methyl}-1H-1,3-benzodiazole-6-carboxylic acid] |
| < 0.1 nM | C[C@H]1C[C@@H](Oc2ccnc(COc3ccc(F)cc3F)n2)CCN1Cc1nc2c(F)cc(C(=O)O)cc2n1C[C@@H]1CCO1 [Compound 576, 2-{[(2S,4S)-4-({2-[(2,4-di-fluorophenoxy)methyl]pyrimidin-4-yl}oxy)-2-methylpiperidin-1-yl]methyl}-4-fluoro-1-{[(2S)-oxetan-2-yl]methyl}-1H-1,3-benzodiazole-6-carboxylic acid] |
| 1 to 10 nM | C[C@H]1C[C@@H](Oc2ccnc(COc3ccc(F)cc3F)n2)CCN1Cc1nc2ccc(CC(=O)O)cc2n1C[C@@H]1CCO1 [Compound 637, 2-(2-(((2S,4S)-4-((2-((2,4-difluorophenoxy)methyl)pyrimidin-4-yl)oxy)-2-methylpiperidin-1-yl)methyl)-1-(((S)-oxetan-2-yl)methyl)-1H-benzo[d]imidazol-6-yl) acetic acid] |
| ≥ 500 nM | CC(c1nc2ccc(C(=O)O)cc2n1C[C@@H](O)CCO)N1CC[C@H](Oc2ccnc(COc3ccc(F)cc3F)n2)C[C@@H]1C (mixture of isomers) [Compound 569, 2-{1-[(2S,4S)-4-({2-[(2,4-difluorophenoxy)methyl]pyrimidin-4-yl}oxy)-2-methylpiperidin-1-yl]ethyl}-1-[(2S)-2,4-dihydroxybutyl]-1H-1,3-benzodiazole-6-carboxylic acid] |
